Measured values taken from US12370235B2, “Synthetic, non-natural antimicrobial peptides inspired by Staphylococcus auricularis delta toxin” (University of Saskatchewan, priority 2021, dated 2025).
In brackets after ≈: the same amount, converted by molar mass. Square brackets hold non-standard residues; d marks the D form. Ends that are not written are not given here. Peptide text beside a SMILES is read from it.

Key:
S. aureus ATCC 29213 [1] = experiment: MIC, broth dilution; type: cell-based, Staphylococcus aureus; settings: for MIC (μg/mL) S. aureus: liquid broth; for MIC S. aureus ATCC 29213: Table 5, STIP3 variants, highest concentration 100 μg/mL
In short: (§1)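 Peptides of 95% purity tested as 2-fold dilution series against bacteria diluted to OD 6×10^−4 in cation-adjusted Mueller Hinton broth. Standing cultures incubated overnight at 37° C; MIC is the lowest concentration with no visible growth.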

S. aureus ATCC 29213 [2] = experiment: Spot-on-lawn assay; type: cell-based, Staphylococcus aureus; settings: 50 μg peptide spotted on agar
Experimental: Spot-on-lawn assay. For the initial screen, peptides of ≥70% purity were used. Each peptide was resuspended in sterile water to a concentration of 10 mg/ml. To determine antimicrobial activities a spot-on-lawn assay was performed. M. luteus and S. aureus were used as indicator strains. To prepare test organisms, the optical density (OD) of overnight cultures were measured and the organisms were diluted to an initial OD of 0.05 in soft nutrient agar (0.4% w/v) at 50° C. Next, 3 mL of soft agar containing a test organism was overlaid on a solid 1.5% w/v nutrient agar plate (LB). A total of 50 μg of each peptide was spotted on the inoculated surface and plates were incubated for 16 to 48 h before being examined for zones of inhibition.
SspA protease treatment. SspA protease was resuspended at 2 mg/mL in 100 mM HEPES, pH 7.8. Proteolysis was achieved by incubation of 50 μg PSMs at 37° C. for ˜5 hours with 0.2 mg/mL SspA. The antimicrobial activity of the proteolytic products were assayed by spotting a 5 μL (˜45 μg) from each treated peptide on each test microorganism as described above.

[3] = system: Mannheimia haemolytica ATCC 33393; experiment: MIC, broth dilution; type: cell-based
In short: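 Peptides (95% purity) in 2-fold dilution series were mixed with M. haemolytica diluted to OD 6×10^−4 in cation-adjusted Mueller Hinton broth and incubated standing overnight at 37 °C. MIC was the lowest concentration with no visible growth.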

M. luteus ATCC 4698 = experiment: MIC, broth dilution; type: cell-based, Micrococcus luteus; settings: Table 4; liquid broth
Experimental: MIC determination. MICs were measured using peptides with 95% purity. For bacterial studies, cation-adjusted Mueller Hinton (MH) broth was used as the growth medium whereas Yeast Peptone Dextrose (YPD; 10 g/L yeast extract, 20 g/L peptone, 20 g/L dextrose) was used for Candida spp. and other yeast. Microorganisms were diluted to an optical density of […] in MH or YPD broth and a 180 μl volume was mixed with 20 μl of peptide arrayed as a 2-fold dilution series in a flat-bottom 96-well microtitre plate. A control was performed using 20 μl of sterile water. Plates were incubated as standing cultures overnight at 37° C.
(§2) Determination of minimum inhibitory concentrations. The MICs were measured for bioactive peptides identified from the initial screen. For bacterial studies, cation-adjusted Mueller Hinton (MH) broth was used as the growth medium whereas YPD was used for C. albicans. Bacterial cultures were diluted to a OD value of 6×10^−4 in MH broth and a 180 μl volume was mixed with 20 μl of peptide arrayed as 2-fold dilution series in a 96-well plate. For the positive control, 20 μl of sterile water was used. Plates were incubated as standing cultures overnight at 37° C. The lowest peptide concentration that resulted no observed microbial growth after an overnight treatment was defined as the MIC.

[4] = system: S. aureus ATCC BAA-41 (MRSA SCCmec type II); experiment: MIC, broth dilution; type: cell-based, Staphylococcus aureus; settings: Table 5; STIP3 variants, highest concentration 100 μg/mL
In short: as §1

[5] = system: S. aureus ATCC BAA-2313 (MRSA SCCmec type XI); experiment: MIC, broth dilution; type: cell-based, Staphylococcus aureus; settings: Table 5; STIP3 variants, highest concentration 100 μg/mL
In short: as §1

[6] = system: S. aureus ATCC BAA-44 (MRSA SCCmec type I); experiment: MIC, broth dilution; type: cell-based, Staphylococcus aureus; settings: Table 5; STIP3 variants, highest concentration 100 μg/mL
In short: as §1

[7] = system: S. aureus ATCC BAA-42 (MRSA SCCmec type VI); experiment: MIC, broth dilution; type: cell-based, Staphylococcus aureus; settings: Table 5; STIP3 variants, highest concentration 100 μg/mL
In short: as §1

[8] = system: S. aureus ATCC BAA-1683 (MRSA SCCmec type IV); experiment: MIC, broth dilution; type: cell-based, Staphylococcus aureus; settings: Table 5; STIP3 variants, highest concentration 100 μg/mL
In short: as §1

[9] = system: S. aureus ATCC 33592 (MRSA SCCmec type III); experiment: MIC, broth dilution; type: cell-based, Staphylococcus aureus; settings: Table 5; STIP3 variants, highest concentration 100 μg/mL
In short: as §1

[10] = system: S. aureus ATCC BAA-2094 (MRSA SCCmec type V); experiment: MIC, broth dilution; type: cell-based, Staphylococcus aureus; settings: Table 5; STIP3 variants, highest concentration 100 μg/mL
In short: as §1

[11] = Circular dichroism spectroscopy; type: physicochemical; settings: CD, 50% (v/v) TFE
In short: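 Secondary structure of peptides dissolved in water at 0.3–0.5 mg/mL was assessed by CD. Spectra were recorded from 180 to 260 nm at room temperature in a 0.1 cm quartz cuvette; water and 50% (v/v) TFE conditions were compared.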

Kodamae ohmeri AR 396 = experiment: MIC, YPD broth, CDC and FDA AR Candida isolate panel; type: cell-based; settings: Table 9 top part: titrations from 1.56 to 100 μg/mL
In short: (§3)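 Medium: 10 g/L yeast extract, 20 g/L peptone, 20 g/L dextrose. Inoculum OD […]; peptides 95% purity, 2-fold series; overnight 37° C, standing.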

Candida krusei AR 397 = experiment: as above; type: cell-based; settings: Table 9 top part: titrations from 1.56 to 100 μg/mL
In short: as §3

[12] = system: Saccharomyces cerevisiae AR 400; experiment: as above; type: cell-based; settings: Table 9 top part: titrations from 1.56 to 100 μg/mL
In short: as §3

[13] = system: Saccharomyces cerevisiae AR 399; experiment: as above; type: cell-based; settings: Table 9 top part: titrations from 1.56 to 100 μg/mL
In short: as §3

[14] = system: Candida duobushaemulonii AR 392; experiment: as above; type: cell-based; settings: Table 9 top part: titrations from 1.56 to 100 μg/mL
In short: as §3

C. albicans MYA-2876 = experiment: MIC, YPD broth; type: cell-based, Candida albicans; settings: Table 8
In short: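 Minimum inhibitory concentrations against Candida albicans were determined in YPD broth (10 g/L yeast extract, 20 g/L peptone, 20 g/L dextrose) using peptides of 95% purity. A 180 μl volume of diluted yeast was combined with 20 μl of peptide in a 2-fold dilution series in 96-well plates, with sterile water as control, then incubated standing overnight at 37° C.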

C. albicans Y537 = experiment: MIC, YPD broth; type: cell-based, Candida albicans; settings: Table 8
[15] = system: S. aureus / MRSA (ATCC MP-2 panel); type: cell-based, Staphylococcus aureus
Experimental: In order to begin to characterize STIP3-1 and potential sites amenable to modification, an alanine scanning experiment was performed. A total of 16 peptides with single alanine substitutions were assessed to inform on the importance of individual residues to antimicrobial activity. […] Next a series of thirty STIP3-1 variants were designed, guided by the aforementioned alanine scan and a previous report that the central α-helical core of the S. aureus δ-toxin could be converted into AMP through the inclusion of additional lysine residues^39. The collection included ten members with single substitutions relative to STIP3-1 and others that incorporated a number of changes that were designed to increase overall and local cationic charge as well as hydrophobic character (Table 5). Each of the STIPs was screened, including STIP3-1 to STIP-31, for antibiotic activity against a methicillin-sensitive S. aureus test organism and a panel of 7 MRSA strains defined by distinct SCCmec genotypes (FIG. 2; ATCC MP-2).
as §2

Compound | MIC (μg/mL) S. aureus (S. aureus ATCC 29213 [1]; Table 4) | MIC (μg/mL) S. aureus (S. aureus ATCC 29213 [1]; Table 10) | inhibition of S. aureus, spot-on-lawn (S. aureus ATCC 29213 [2]) | MIC (μg/mL) M. haemolytica ([3]; Table 10, liquid broth) [µg/mL] | MIC (μg/mL) M. luteus (M. luteus ATCC 4698) [µg/mL] | also measured
TVGGLVKWILDTVKAFA [K15A, TVGGLVKWILDTVKAFA] | >^b (> = >200 μg/mL (maximum concentration tested)) | >^b (the use of > indicates an MIC > 200 μg/mL; the maximum concentration tested) | observed to inhibit S. aureus | 50 | 25 | –
AVGGLVKWILDTVKKFA [T1A, AVGGLVKWILDTVKKFA] | 200 µg/mL | – | observed to inhibit S. aureus | 50 | 12.5 | –
TVGALVKWILDTVKKFA [G4A, TVGALVKWILDTVKKFA] | >^b (> = >200 μg/mL (maximum concentration tested)) | >^b (the use of > indicates an MIC > 200 μg/mL; the maximum concentration tested) | observed to inhibit S. aureus | 50 | 12.5 | –
TVGGLVKWILDAVKKFA [T12A, TVGGLVKWILDAVKKFA] | 100 µg/mL | – | observed to inhibit S. aureus | 50 | 12.5 | –
TVGGLVKWILATVKKFA [STIP3-2, TVGGLVKWILATVKKFA] | 100 µg/mL | – | observed to inhibit S. aureus | 50 | 3.13 | MIC S. aureus ATCC BAA 41 (II) [4]: 100 mg/L; MIC S. aureus ATCC 29213 (S. aureus ATCC 29213 [1]): 100 mg/L; MIC S. aureus ATCC BAA 2313 (XI) [5]: 50 mg/L; MIC S. aureus ATCC BAA 44 (I) [6]: 100 mg/L; MIC S. aureus ATCC BAA 42 (VI) [7]: 50 mg/L; MIC S. aureus ATCC BAA 1683 (IV) [8]: 50 mg/L; MIC S. aureus ATCC 33592 (III) [9]: 50 mg/L; MIC S. aureus ATCC BAA 2094 (V) [10]: 50 mg/L; α helicity (%) [11]: 50%; MIC (μg/mL) Kodamae ohmeri AR 396 (Kodamae ohmeri AR 396): 100 µg/mL; MIC (μg/mL) Candida krusei AR 397 (Candida krusei AR 397): 50 µg/mL; MIC (μg/mL) Saccharomyces cerevisiae AR 400 [12]: 100 µg/mL; MIC (μg/mL) Saccharomyces cerevisiae AR 399 [13]: 50 µg/mL; MIC (μg/mL) Candida duobushaemulonii AR 392 [14]: > (MIC values reported at the top of the table (above the double line) are based on titrations from 1.56 to 100 μg/mL); MIC C. albicans MYA-2876 (C. albicans MYA-2876): 100 mg/L; MIC (μg/mL) M. haemolytica ([3]; Table 11, highest concentration 25 μg/mL): 25 µg/mL
TVAGLVKWILDTVKKFA [G3A, TVAGLVKWILDTVKKFA] | >^b (> = >200 μg/mL (maximum concentration tested)) | >^b (the use of > indicates an MIC > 200 μg/mL; the maximum concentration tested) | observed to inhibit S. aureus | 100 | 50 | –
TVGGLVKWILDTVAKFA [K14A, TVGGLVKWILDTVAKFA] | >^b (> = >200 μg/mL (maximum concentration tested)) | >^b (the use of > indicates an MIC > 200 μg/mL; the maximum concentration tested) | observed to inhibit S. aureus | 100 | 12.5 | –
CC[C@H](C)[C@H](NC(=O)[C@H](Cc1c[nH]c2ccccc12)NC(=O)[C@H](CCCCN)NC(=O)[C@@H](NC(=O)[C@H](CC(C)C)NC(=O)CNC(=O)CNC(=O)[C@@H](NC(=O)[C@@H](N)[C@@H](C)O)C(C)C)C(C)C)C(=O)N[C@@H](CC(C)C)C(=O)N[C@H](CCCCN)C(=O)N[C@H](C(=O)N[C@H](C(=O)N[C@@H](CCCCN)C(=O)N[C@@H](CCCCN)C(=O)N[C@@H](Cc1ccccc1)C(=O)N[C@@H](C)C(N)=O)C(C)C)[C@@H](C)O [STIP3-29-D1, TVGGLVKWILKTVKKFA-NH2] (H-TVGGLVKWIL[dK]TVKKFA-NH2; N-terminus assumed) | – | – | – | – | – | MIC S. aureus ATCC 29213 (S. aureus ATCC 29213 [1]): 12.5 mg/L (≈ 6.62 µM); MIC S. aureus ATCC 33592 (III) [9]: 25 mg/L (≈ 13.2 µM); α helicity (%) [11]: 51%; MIC C. albicans Y537 (C. albicans Y537): 25 mg/L (≈ 13.2 µM); MIC C. albicans MYA-2876 (C. albicans MYA-2876): 12.5 mg/L (≈ 6.62 µM); fold increase of MIC relative to STIP3-29 [15]: 4 fold
